One series relates to HIV-1 BaL. As to the kind of experiment: Inhibition of infection of U87.CD4.CCR5 by HIV-1 BaL. The settings on record: Human immunodeficiency virus 1, BAL; U87.CD4.CCR5 cells; read-out: IC50 against infection of U87.CD4.CCR5 by HIV-1 BaL. Type of series: cell-based.
Another series relates to HIV-1 (HTLV-IIIB). The series can be described thus: microbe, parasite or virus in culture. It is filed as cell-based. The following applies: MT-4 cells. On the procedure:
(§1) The compounds of the invention were tested in a screen by the MTT method (J. Virol. Methods […] (1988)). MT-4 cells (2.5×10^4/well) were challenged with HIV-1 (HTLV-IIIB) or HIV-2 (LAV-2 ROD) at a concentration of 100 CCID50 and incubated in the presence of various concentrations of the test compounds, which were added immediately after challenge with the virus. After 5 days culture at 37° C. in a CO2 incubator, the number of viable cells was assessed by the MTT (tetrazolium) method. […] The potential therapeutic usefulness was assessed by calculating a Selectivity Index (SI) corresponding to the ratio of CC50 to EC50.

The subject of the next series is HIV-2 (LAV-2 ROD). As to the kind of experiment: Anti-HIV-2 screen by the MTT method in MT-4 cells. Type of series: cell-based. The settings on record: Human immunodeficiency virus 2, MT4, 120 h, 100 CCID50, 5 days. On the procedure: as §1
The nature of another series: in vitro. It is filed as cell-based. The settings on record: human. On the procedure:
as §1

For series [1], the target named is T1, CXCR-4 (Homo sapiens, UniProt P61073).
T1 construct: endogenous in cells; host or cells: SUP-T1 cells
The series can be described thus: Inhibition of signal transduction (Ca2+ flux) induced by SDF-1α binding to CXCR-4 on SUP-T1 cells. Type of series: cell-based. The following applies: SDF-1α induced. (In general: Calcium assays in cells follow changes in intracellular calcium, usually with a dye or a luminescent sensor.)

In series [2] the target is T1, CXCR-4. The series can be described thus: Inhibition of mAb 12G5 binding to CXCR-4 in SUP-T1 cells.
For series [3] the following is noted: from CCOP(=O)(OCC)N(CCCCCCCNC(=O)CBr)CCNS(=O)(=O)c1ccccc1[N+](=O)[O-]; amine bond; K2CO3; acetonitrile; 0.6 mM; 60.0 °C; 24.0 h.

SMILES strings stand for the structures. ≈ marks a conversion by molar mass, not a printed value.

T1 sequence (P61073 whole entry): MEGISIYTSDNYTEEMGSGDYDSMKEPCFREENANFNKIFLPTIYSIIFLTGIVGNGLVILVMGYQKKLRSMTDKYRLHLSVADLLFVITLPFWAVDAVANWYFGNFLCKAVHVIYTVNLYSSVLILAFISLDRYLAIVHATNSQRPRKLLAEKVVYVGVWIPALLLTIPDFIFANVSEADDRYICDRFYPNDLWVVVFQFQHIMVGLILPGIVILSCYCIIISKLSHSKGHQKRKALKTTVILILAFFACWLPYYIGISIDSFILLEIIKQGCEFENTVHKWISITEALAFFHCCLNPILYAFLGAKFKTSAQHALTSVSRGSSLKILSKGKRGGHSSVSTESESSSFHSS
Description for DBA/1 IFN-γ RKO mice: The control group consisted of ten mice that were injected with collagen as discussed below.
The experiments were performed in 8- to 12-week old mice, but in each experiment, the mutant and wild-type mice were age-matched with a 5 day limit. The male to female ratio was kept between 0.8 and 1.3 in each experimental group.
Native chicken collagen type II (EPC, Owensvillle, Mo.) was dissolved in 0.05 M acetic acid at 2 mg/ml by stirring overnight at 6° C., and emulsified in an equal volume of incomplete (IFA) or complete Freund's adjuvant (CFA) containing 1.5 mg/ml heat killed Mycobacterium butyricum (Difco, Detroit, Mich.). Mice were sensitized with a single 100 μl intradermal injection of the emulsion at the base of the tail. Mice were examined daily for signs of arthritis. The disease severity was recorded following a scoring system for each limb. Score 0: normal; score 1: redness and/or swelling in one joint; score 2: redness and/or swelling in more than one joint; score 3: redness and/or welling in the entire paw; score 4: deformity and/or ankylosis.

What is called IC50 is the concentration that inhibits the measured activity by half. In the case of `c1cc(CN2CCCNCCNCCCNCC2)ccc1CN1CCCNCCNCCCNCC1` [AMD3100], the IC50 in the series on HIV-1 BaL was more than 100 µg/mL. Moreover, the animals demonstrating arthritis in the series on DBA/1 IFN-γ RKO mice (14 days after treatment, i.v. osmotic pump, 5 mg/ml over 14 days, control 7 of ten) is 1 of the 8. In addition, the “body weight loss of treated animals compared with control animals” value in the series on DBA/1 IFN-γ RKO mice (collagen-injected mice) is given as “did not demonstrate any significant body weight loss”. Further, the “time until the single treated animal developed arthritic pathology” value with DBA/1 IFN-γ RKO mice (post-treatment) is given as more than 20 days.

Usually EC50 stands for the midpoint of the concentration-response curve. A low value points to greater potency. What is called CC50 is the concentration that lowers cell viability or growth by half. A higher CC50 goes with better tolerance by the cells. With `c1ccc(CNCc2ccc(CN3CCCNCCNCCCNCC3)cc2)nc1` [AMD3465, N-[1,4,8,11-Tetraazacyclotetradecanyl-1,4-phenylenebis(methylene)]-2-(amino-methyl)pyridine], the “SI HIV-1 (Selectivity Index, ratio of CC50 to EC50)” value in the series on HIV-1 (HTLV-IIIB) (HIV-1 (IIIB)) is 3 × 10^4. In addition, the EC50 in the series with HIV-1 (HTLV-IIIB) (Human immunodeficiency virus 1, IIIB, MT4, 120 h, 100 CCID50, 5 days, MTT) turned out to be 0.008 µg/mL (≈ 0.0195 µM); in the series on HIV-2 (LAV-2 ROD) it was 0.032 µg/mL (≈ 0.0779 µM). In the series “in vitro”, the CC50 at 5 days is more than 250 µg/mL. Also, the IC50 at CXCR-4 [1] is 2.44 nM; on CXCR-4 [2], 7.31 nM.

`CCOP(=O)(OCC)N1CCCCCCCNC(=O)CN(S(=O)(=O)c2ccccc2[N+](=O)[O-])CC1`: the ring closure, yield of all isomers in series [3] came out at 90%.

For the origin of these results see patent US20070060591A1, “Chemokine receptor binding heterocyclic compounds” (priority 1999, published 2007).
